Assay results reported in US20240307382A1, “MODULATORS OF THE INTEGRATED STRESS PATHWAY” (Calico Life Sciences LLC, priority 2017, published 2024).

tested on: HEK293T cells carrying the ATF4 luciferase reporter; assay: ATF4-Luc assay (ATF4 luciferase reporter, tunicamycin-treated cells); type: cell-based; settings: Homo sapiens, HEK-293T, 1 μg/mL tunicamycin, 7 hours
In short: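 A stable HEK293T reporter line was made by placing the full-length human ATF4 5′-UTR ahead of a firefly luciferase sequence without its start methionine, delivered by retroviral transduction and puromycin selection. Cells were seeded at 30,000 per well in polylysine-coated 384-well plates, exposed next day to 1 μg/mL tunicamycin plus compound for 7 hours, and luminescence was read with One Glo.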

| SMILES | EC50 [nM] |
| --- | --- |
| N#Cc1ccnc(C(=O)NC23CCC(NC(=O)COc4ccc(Cl)c(Cl)c4)(CC2)[C@@H](O)C3)c1 [Compound 1032, 4-cyano-N-{(3S)-4-[2-(3,4-dichlorophenoxy)acetamido]-3-hydroxybicyclo[2.2.2]octan-1-yl}pyridine-2-carboxamide] | < 50 |
| N#Cc1ccc(C(=O)NC23CCC(NC(=O)COc4ccc(Cl)c(Cl)c4)(CC2)[C@@H](O)C3)nc1 [Compound 1033, 5-cyano-N-{(3S)-4-[2-(3,4-dichlorophenoxy)acetamido]-3-hydroxybicyclo[2.2.2]octan-1-yl}pyridine-2-carboxamide] | < 50 |
| Cc1nc(C(=O)NC23CCC(NC(=O)COc4ccc(Cl)c(Cl)c4)(CC2)[C@@H](O)C3)ccc1C#N [Compound 1034, 5-cyano-N-{(3S)-4-[2-(3,4-dichlorophenoxy)acetamido]-3-hydroxybicyclo[2.2.2]octan-1-yl}-6-methylpyridine-2-carboxamide] | < 50 |
| O=C(COc1ccc(Cl)c(F)c1)NC12CCC(NC(=O)c3ncc(-c4ccccc4)s3)(CC1)C[C@@H]2O [Compound 1035, N-{(3S)-4-[2-(4-chloro-3-fluorophenoxy)acetamido]-3-hydroxybicyclo[2.2.2]octan-1-yl}-5-phenyl-1,3-thiazole-2-carboxamide] | < 50 |
| O=C(COc1ccc(Cl)c(F)c1)NC12CCC(NC(=O)c3coc(-c4ccccc4)n3)(CC1)C[C@@H]2O [Compound 1036, N-{(3S)-4-[2-(4-chloro-3-fluorophenoxy)acetamido]-3-hydroxybicyclo[2.2.2]octan-1-yl}-2-phenyl-1,3-oxazole-4-carboxamide] | < 50 |
| Cn1nc(C(=O)NC23CCC(NC(=O)COc4ccc(Cl)c(F)c4)(CC2)[C@@H](O)C3)cc1-c1ccccc1 [Compound 1037, N-{(3S)-4-[2-(4-chloro-3-fluorophenoxy)acetamido]-3-hydroxybicyclo[2.2.2]octan-1-yl}-1-methyl-5-phenyl-1H-pyrazole-3-carboxamide] | < 50 |
| O=C(COc1ccc(Cl)c(F)c1)NC12CCC(NC(=O)c3nc(-c4ccccc4)cs3)(CC1)C[C@@H]2O [Compound 1038, N-{(3S)-4-[2-(4-chloro-3-fluorophenoxy)acetamido]-3-hydroxybicyclo[2.2.2]octan-1-yl}-4-phenyl-1,3-thiazole-2-carboxamide] | < 50 |
| O=C(COc1ccc(Cl)c(F)c1)NC12CCC(NC(=O)c3cc(-c4ccccc4)on3)(CC1)C[C@@H]2O [Compound 1039, N-{(3S)-4-[2-(4-chloro-3-fluorophenoxy)acetamido]-3-hydroxybicyclo[2.2.2]octan-1-yl}-5-phenyl-1,2-oxazole-3-carboxamide] | < 50 |
| O=C(COc1ccc(Cl)c(F)c1)NC12CCC(NC(=O)c3csc(-c4ccccc4)n3)(CC1)C[C@@H]2O [Compound 1040, N-{(3S)-4-[2-(4-chloro-3-fluorophenoxy)acetamido]-3-hydroxybicyclo[2.2.2]octan-1-yl}-2-phenyl-1,3-thiazole-4-carboxamide] | < 50 |
| O=C(COc1ccc(Cl)c(Cl)c1)NC12CCC(NC(=O)c3cnc(-c4ccccc4)o3)(CC1)C[C@@H]2O [Compound 1041, N-{(3S)-4-[2-(3,4-dichlorophenoxy)acetamido]-3-hydroxybicyclo[2.2.2]octan-1-yl}-2-phenyl-1,3-oxazole-5-carboxamide] | < 50 |
| O=C(COc1ccc(Cl)c(F)c1)NC12CC(NC(=O)c3cnc(-c4cccnc4)o3)(C1)C2 [Compound 1042, N-{3-[2-(4-chloro-3-fluorophenoxy)acetamido]bicyclo[1.1.1]pentan-1-yl}-2-(pyridin-3-yl)-1,3-oxazole-5-carboxamide] | < 50 |
| O=C(COc1ccc(Cl)c(Cl)c1)NC12CC(NC(=O)c3cnc(C(F)(F)F)o3)(C1)C2 [Compound 1043, N-{3-[2-(3,4-dichlorophenoxy)acetamido]bicyclo[1.1.1]pentan-1-yl}-2-(trifluoromethyl)-1,3-oxazole-5-carboxamide] | 50 to 250 |
| O=C(COc1ccc(Cl)c(F)c1)NC12CC(NC(=O)c3cnc(C(F)(F)F)o3)(C1)C2 [Compound 1044, N-{3-[2-(4-chloro-3-fluorophenoxy)acetamido]bicyclo[1.1.1]pentan-1-yl}-2-(trifluoromethyl)-1,3-oxazole-5-carboxamide] | 50 to 250 |
| O=C(COc1ccc(Cl)c(F)c1)NC12CC(Nc3cncc(C(F)(F)F)c3)(C1)C2 [Compound 1045, 2-(4-chloro-3-fluorophenoxy)-N-(3-{[5-(trifluoromethyl)pyridin-3-yl]amino}bicyclo[1.1.1]pentan-1-yl)acetamide] | > 2000 |
| Cn1nnc(-c2ccc(NC34CC(NC(=O)COc5ccc(Cl)c(F)c5)(C3)C4)cn2)n1 [Compound 1046, 2-(4-chloro-3-fluorophenoxy)-N-(3-{[6-(2-methyl-2H-tetrazol-5-yl)pyridin-3-yl]amino}bicyclo[1.1.1]pentan-1-yl)acetamide] | > 2000 |
| O=C(COc1ccc(Cl)c(F)c1)NC12CCC(NC(=O)c3ccc4c(c3)OC(F)(F)O4)(CC1)NC2=O [Compound 1047, N-{4-[2-(4-chloro-3-fluorophenoxy)acetamido]-3-oxo-2-azabicyclo[2.2.2]octan-1-yl}-2,2-difluoro-2H-1,3-benzodioxole-5-carboxamide] | > 2000 |
| O=C(COc1ccc(Cl)c(Cl)c1)NC12CCC(NC(=O)c3cc(C(F)F)no3)(CC1)NC2=O [Compound 1048, N-{4-[2-(3,4-dichlorophenoxy)acetamido]-3-oxo-2-azabicyclo[2.2.2]octan-1-yl}-3-(difluoromethyl)-1,2-oxazole-5-carboxamide] | > 2000 |
| Cc1cc(C(=O)NC23CCC(NC(=O)COc4ccc(Cl)c(Cl)c4)(CC2)C(=O)N3)on1 [Compound 1049, N-{4-[2-(3,4-dichlorophenoxy)acetamido]-3-oxo-2-azabicyclo[2.2.2]octan-1-yl}-3-methyl-1,2-oxazole-5-carboxamide] | > 2000 |
| O=C(COc1ccc(Cl)c(F)c1)NC12CCC(NC(=O)c3cc(C(F)F)no3)(CC1)NC2=O [Compound 1050, N-{4-[2-(4-chloro-3-fluorophenoxy)acetamido]-3-oxo-2-azabicyclo[2.2.2]octan-1-yl}-3-(difluoromethyl)-1,2-oxazole-5-carboxamide] | > 2000 |
| Cc1cc(C(=O)NC23CCC(NC(=O)COc4ccc(Cl)c(F)c4)(CC2)C(=O)N3)on1 [Compound 1051, N-{4-[2-(4-chloro-3-fluorophenoxy)acetamido]-3-oxo-2-azabicyclo[2.2.2]octan-1-yl}-3-methyl-1,2-oxazole-5-carboxamide] | > 2000 |
| O=C(COc1ccc(Cl)c(Cl)c1)NC12CCC(NC(=O)c3coc(C(F)F)n3)(CC1)C[C@@H]2O [Compound 1052, N-{(3S)-4-[2-(3,4-dichlorophenoxy)acetamido]-3-hydroxybicyclo[2.2.2]octan-1-yl}-2-(difluoromethyl)-1,3-oxazole-4-carboxamide] | < 50 |
| O=C(NC12CCC(NC(=O)c3cnc(-c4ccccc4)o3)(CC1)[C@@H](O)C2)c1cnc(-c2ccccc2)o1 [Compound 1053, N,N′-[(2S)-2-hydroxybicyclo[2.2.2]octane-1,4-diyl]bis(2-phenyl-1,3-oxazole-5-carboxamide)] | < 50 |
| O=C(NC12CCC(NC(=O)c3cnc(-c4ccccc4)o3)(CC1)C2)c1cnc(-c2ccccc2)o1 [Compound 1055, N,N′-(bicyclo[2.2.1]heptane-1,4-diyl)bis(2-phenyl-1,3-oxazole-5-carboxamide)] | 50 to 250 |
